Patent publication US20260256792A1, “TREATMENT OF CHRONIC SPONTANEOUS URTICARIA BY ADMINISTERING (R)-2-[3-[4-AMINO-3-(2-FLUORO-4-PHENOXY-PHENYL)PYRAZOLO[3,4-D]PYRIMIDIN-1-YL]PIPERIDINE-1-CARBONYL]-4-METHYL-4-[4-(OXETAN-3-YL)PIPERAZIN-1-YL]PENT-2-ENENITRILE” (priority 2023, published 2026)

Test system: moderate-to-severe chronic spontaneous urticaria (CSU)
Assay: Phase 2 CSU study: itch severity score over 7 days (ISS7)
Type: in vivo, human
Text: The study comprises a 12 week, randomized, double-blind, placebo-controlled, multi-center, dose-ranging efficacy and safety phase, followed by a 40 week open label extension (OLE) phase (see FIG. 1). The study consists of three phases and an optional OLE phase. […] Clinically, CSU is characterized by the spontaneous and recurrent appearance of pruritic hives. The proposed primary endpoints were the UAS7 at Week 12 in EU and EU reference countries and the ISS7 in the US. Regardless of where a participant was from, all assessments were the same. The UAS7 score is a composite score containing both the HSS7 and the ISS7. This allowed a global assessment of the two key components of urticaria: hives and itch. […] The UAS is a validated PRO measure. […] The daily UAS scores range from 0 to 6 point/day. […] Patients were to complete the UAS using the e-diary. […] The following secondary endpoints were to be analyzed using the same approach as for the primary endpoint: • Change from baseline in UAS7 at Week 4 • Change from baseline in UAS7 at Week 12 (for US and US reference countries) • Change from baseline in ISS7 at Week 12 (except US and US reference countries) • Change from baseline in HSS7 at Week 12

[1] = Week 10, 400 mg QPM, Omalizumab-Naïve
[2] = Week 10, 400 mg QPM, Prior Omalizumab Use
[3] = Week 10, 400 mg TID, Omalizumab-Naïve
[4] = Week 10, 400 mg TID, Prior Omalizumab Use
[5] = Week 11, 400 mg BID, Omalizumab-Naïve
[6] = Week 11, 400 mg BID, Prior Omalizumab Use
[7] = Week 11, 400 mg QPM, Omalizumab-Naïve
[8] = Week 11, 400 mg QPM, Prior Omalizumab Use
[9] = Week 11, 400 mg TID, Omalizumab-Naïve
[10] = Week 11, 400 mg TID, Prior Omalizumab Use
[11] = Week 12, 400 mg BID, Omalizumab-Naïve
[12] = Week 12, 400 mg BID, Prior Omalizumab Use
[13] = Week 12, 400 mg QPM, Omalizumab-Naïve
[14] = Week 12, 400 mg QPM, Prior Omalizumab Use
[15] = Week 12, 400 mg TID, Omalizumab-Naïve
[16] = Week 12, 400 mg TID, Prior Omalizumab Use

CC(C)(C=C(C#N)C(=O)N1CCC[C@@H](n2nc(-c3ccc(Oc4ccccc4)cc3F)c3c(N)ncnc32)C1)N1CCN(C2COC2)CC1 [rilzabrutinib, (R)-2-[3-[4-amino-3-(2-fluoro-4-phenoxy-phenyl)pyrazolo[3,4-d]pyrimidin-1-yl]piperidine-1-carbonyl]-4-methyl-4-[4-(oxetan-3-yl)piperazin-1-yl]pent-2-enenitrile]
ISS7 Change from baseline Median [1]: −6.00 | ISS7 Mean (SD) [1]: 10.43 (5.30) | ISS7 Median [1]: 9.50 | ISS7 Percent change from baseline Mean (SD) [1]: −37.25 (29.62) % | ISS7 Percent change from baseline Median [1]: −39.23% | ISS7 Change from baseline Mean (SD) [2]: −13.00 (NC) | ISS7 Change from baseline Median [2]: −13.00 | ISS7 Mean (SD) [2]: 8.00 (NC) | ISS7 Median [2]: 8.00 | ISS7 Percent change from baseline Mean (SD) [2]: −61.90 (NC) % | ISS7 Percent change from baseline Median [2]: −61.90% | ISS7 Change from baseline Mean (SD) [3]: −9.55 (5.37) | ISS7 Change from baseline Median [3]: −10.00 | ISS7 Mean (SD) [3]: 6.75 (5.25) | ISS7 Median [3]: 7.00 | ISS7 Percent change from baseline Mean (SD) [3]: −58.27 (30.87) % | ISS7 Percent change from baseline Median [3]: −57.19% | ISS7 Change from baseline Mean (SD) [4]: −12.17 (8.26) | ISS7 Change from baseline Median [4]: −13.00 | ISS7 Mean (SD) [4]: 4.83 (6.85) | ISS7 Median [4]: 3.00 | ISS7 Percent change from baseline Mean (SD) [4]: −68.55 (36.38) % | ISS7 Percent change from baseline Median [4]: −79.76% | ISS7 Change from baseline Mean (SD) [5]: −7.51 (6.18) | ISS7 Change from baseline Median [5]: −8.00 | ISS7 Mean (SD) [5]: 7.93 (6.94) | ISS7 Median [5]: 7.00 | ISS7 Percent change from baseline Mean (SD) [5]: −49.75 (40.18) % | ISS7 Percent change from baseline Median [5]: −57.14% | ISS7 Change from baseline Mean (SD) [6]: −10.43 (9.36) | ISS7 Change from baseline Median [6]: −13.00 | ISS7 Mean (SD) [6]: 6.77 (8.14) | ISS7 Median [6]: 2.00 | ISS7 Percent change from baseline Mean (SD) [6]: −58.05 (49.51) % | ISS7 Percent change from baseline Median [6]: −86.67% | ISS7 Change from baseline Mean (SD) [7]: −6.07 (4.83) | ISS7 Change from baseline Median [7]: −6.00 | ISS7 Mean (SD) [7]: 11.03 (5.55) | ISS7 Percent change from baseline Mean (SD) [7]: −36.12 (28.12) % | ISS7 Percent change from baseline Median [7]: −30.00% | ISS7 Change from baseline Mean (SD) [8]: −12.00 (NC) | ISS7 Change from baseline Median [8]: −12.00 | ISS7 Mean (SD) [8]: 9.00 (NC) | ISS7 Median [8]: 9.00 | ISS7 Percent change from baseline Mean (SD) [8]: −57.14 (NC) % | ISS7 Percent change from baseline Median [8]: −57.14% | ISS7 Change from baseline Mean (SD) [9]: −9.23 (5.92) | ISS7 Change from baseline Median [9]: −9.00 | ISS7 Mean (SD) [9]: 6.99 (5.53) | ISS7 Median [9]: 7.00 | ISS7 Percent change from baseline Mean (SD) [9]: −56.08 (33.60) % | ISS7 Percent change from baseline Median [9]: −60.00% | ISS7 Change from baseline Mean (SD) [10]: −12.58 (8.36) | ISS7 Change from baseline Median [10]: −13.75 | ISS7 Mean (SD) [10]: 4.42 (6.99) | ISS7 Median [10]: 1.75 | ISS7 Percent change from baseline Mean (SD) [10]: −71.13 (37.09) % | ISS7 Percent change from baseline Median [10]: −87.50% | ISS7 Change from baseline Mean (SD) [11]: −7.40 (6.12) | ISS7 Change from baseline Median [11]: −7.00 | ISS7 Mean (SD) [11]: 8.09 (6.95) | ISS7 Median [11]: 7.00 | ISS7 Percent change from baseline Mean (SD) [11]: −49.06 (38.85) % | ISS7 Percent change from baseline Median [11]: −45.00% | ISS7 Change from baseline Mean (SD) [12]: −13.50 (9.33) | ISS7 Change from baseline Median [12]: −16.50 | ISS7 Mean (SD) [12]: 4.50 (9.00) | ISS7 Median [12]: 0.00 | ISS7 Percent change from baseline Mean (SD) [12]: −75.00 (50.00) % | ISS7 Percent change from baseline Median [12]: −100.00% | ISS7 Change from baseline Mean (SD) [13]: −5.69 (4.72) | ISS7 Change from baseline Median [13]: −5.33 | ISS7 Median [13]: 11.60 | ISS7 Percent change from baseline Mean (SD) [13]: −33.81 (26.94) % | ISS7 Percent change from baseline Median [13]: −32.64% | ISS7 Change from baseline Mean (SD) [14]: −14.00 (NC) | ISS7 Change from baseline Median [14]: −14.00 | ISS7 Mean (SD) [14]: 7.00 (NC) | ISS7 Median [14]: 7.00 | ISS7 Change from baseline Mean (SD) [15]: −10.27 (6.02) | ISS7 Change from baseline Median [15]: −10.33 | ISS7 Mean (SD) [15]: 5.77 (5.26) | ISS7 Median [15]: 7.00 | ISS7 Percent change from baseline Mean (SD) [15]: −62.66 (31.72) % | ISS7 Percent change from baseline Median [15]: −57.19% | ISS7 Change from baseline Mean (SD) [16]: −13.00 (9.27) | ISS7 Change from baseline Median [16]: −17.00 | ISS7 Mean (SD) [16]: 4.60 (7.80) | ISS7 Median [16]: 0.00 | ISS7 Percent change from baseline Mean (SD) [16]: −70.36 (41.41) % | ISS7 Percent change from baseline Median [16]: −100.00%
